Measured values taken from patent US10689377B2 (Mirati Therapeutics, Inc., priority 2017, dated 2020).
pIC50: −log10 of the molar value. Structures can show the parent of a compound that is named as a salt.

molecular target: KRas G12C (Homo sapiens, UniProt P01116, G12C); experiment: Cellular inhibition of KRas G12C measured by Phospho-ERK in NCI-H358 cells; assay type: cell-based; conditions: pERK(Thr202/Tyr204) normalized with GAPDH, NCI-H358 cells, 3 hours; read-out: IC50
How it was run: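 Readout is pERK(Thr202/Tyr204) immunofluorescence normalized to GAPDH, expressed as percent of DMSO control and fitted with a 4-parameter curve for IC50. Attached NCI-H358 cells received compound for 3 hours in 0.5% DMSO, followed by fixation and methanol permeabilization.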

KRas G12C, sequence (P01116 1-188 isoform P01116-2 G12C): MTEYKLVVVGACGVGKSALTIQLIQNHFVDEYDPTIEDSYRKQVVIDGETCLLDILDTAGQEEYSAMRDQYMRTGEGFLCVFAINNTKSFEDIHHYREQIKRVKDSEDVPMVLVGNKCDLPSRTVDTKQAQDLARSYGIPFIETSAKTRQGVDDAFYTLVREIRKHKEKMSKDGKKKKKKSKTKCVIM

| pIC50 | SMILES |
| --- | --- |
| < 6.00 | C=C(F)C(=O)N1CCN(c2ncnc3c2CCN(c2cccc4cccc(C)c24)C3)C[C@@H]1CC#N [Example 611, (S)-2-(1-(2-fluoroacryloyl)-4-(7-(8-methylnaphthalen-1-yl)-5,6,7,8-tetrahydropyrido[3,4-d]pyrimidin-4-yl)piperazin-2-yl)acetonitrile] |
| < 6.00 | C=CC(=O)N1CCN(c2nc(OC[C@@H]3CCCN3C)nc3c2CCN(c2ccnc4ccccc24)C3)CC1CC#N (stereo partly drawn) [Example 295, 2-[4-[2-[[(2S)-1-methylpyrrolidin-2-yl]methoxy]-7-(4-quinolyl)-6,8-dihydro-5H-pyrido[3,4-d]pyrimidin-4-yl]-1-prop-2-enoyl-piperazin-2-yl]acetonitrile] |
| 6.00 to 10.00 | C=CC(=O)N1CCN(c2nc(OC[C@@H]3C[C@@H](O)CN3C)nc3c2CCN(c2ccccc2C(F)(F)F)C3)CC1CC#N (stereo partly drawn) [Example 312, 2-[4-[2-[[(2S,4R)-4-hydroxy-1-methyl-pyrrolidin-2-yl]methoxy]-7-[2-(trifluoromethyl)phenyl]-6,8-dihydro-5H-pyrido[3,4-d]pyrimidin-4-yl]-1-prop-2-enoyl-piperazin-2-yl]acetonitrile] |
| < 6.00 | C=CC(=O)N1CCN(c2nc(OCCCN3CCS(=O)(=O)CC3)nc3c2CCN(c2cc(O)cc4ccccc24)C3)CC1 [Example 34, 1-(4-(2-(3-(1,1-dioxidothiomorpholino)propoxy)-7-(3-hydroxynaphthalen-1-yl)-5,6,7,8-tetrahydropyrido[3,4-d]pyrimidin-4-yl)piperazin-1-yl)prop-2-en-1-one trifluoroacetate] |
| < 6.00 | C=CC(=O)N1CCN(c2nc(OC[C@@H]3CCCN3C)nc3c2CCN(c2nncc4ccccc24)C3)C[C@@H]1CC#N [Example 431, 2-((S)-1-acryloyl-4-(2-(((S)-1-methylpyrrolidin-2-yl)methoxy)-7-(phthalazin-1-yl)-5,6,7,8-tetrahydropyrido[3,4-d]pyrimidin-4-yl)piperazin-2-yl)acetonitrile] |
| < 6.00 | C=CC(=O)N1CCN(c2nc(OC[C@H](O)CN3CCOCC3)nc3c2CCN(c2cc(O)cc4ccccc24)C3)CC1 (single isomer, unassigned) [Example 215] |
| < 6.00 | C=C(F)C(=O)N1CCN(c2nc(OC[C@@H]3CCCN3C)nc3c2CCN(c2c(C)ncc4ccccc24)C3)C[C@@H]1CC#N [Example 617] |
| 6.00 to 10.00 | C=CC(=O)N1CCN(c2nc(OC[C@@H]3CCCN3CCOC)nc3c2CCN(c2cc(O)cc4ccccc24)C3)CC1 [Example 144, (S)-1-(4-(7-(3-hydroxynaphthalen-1-yl)-2-((1-(2-methoxyethyl)pyrrolidin-2-yl)methoxy)-5,6,7,8-tetrahydropyrido[3,4-d]pyrimidin-4-yl)piperazin-1-yl)prop-2-en-1-one] |
| 6.00 to 10.00 | C=CC(=O)N1CCN(c2nc(OC[C@@H]3C[C@@H](OC)CN3C)nc3c2CCN(c2cccc(Cl)c2C(F)(F)F)C3)C[C@@H]1CC#N [Example 332, 2-[(2S)-4-[7-[3-chloro-2-(trifluoromethyl)phenyl]-2-[[(2S,4R)-4-methoxy-1-methyl-pyrrolidin-2-yl]methoxy]-6,8-dihydro-5H-pyrido[3,4-d]pyrimidin-4-yl]-1-prop-2-enoyl-piperazin-2-yl]acetonitrile] |
| 6.00 to 10.00 | C=CC(=O)N1CCN(c2nc(OC[C@@H]3CCCN(C)C3)nc3c2CCN(c2cc(O)cc4ccccc24)C3)CC1 [Example 192, (R)-1-(4-(7-(3-hydroxynaphthalen-1-yl)-2-((1-methylpiperidin-3-yl)methoxy)-5,6,7,8-tetrahydropyrido[3,4-d]pyrimidin-4-yl)piperazin-1-yl)prop-2-en-1-one] |
| < 6.00 | C=CC(=O)N1CCN(c2nc(OC[C@@H]3CCCN3C)nc3c2CCN(c2ccccc2C(F)(F)F)C3)CC1 [Example 159, (S)-1-(4-(2-((1-methylpyrrolidin-2-yl)methoxy)-7-(2-(trifluoromethyl)phenyl)-5,6,7,8-tetrahydropyrido[3,4-d]pyrimidin-4-yl)piperazin-1-yl)prop-2-en-1-one] |
| 6.00 to 10.00 | C=CC(=O)N1CCN(c2nc(OC[C@H]3CCCN3C)nc3c2CCN(c2cc(O)cc4ccccc24)C3)C[C@@H]1CC#N [Example 344, 2-[(2S)-4-[7-(3-hydroxy-1-naphthyl)-2-[[(2R)-1-methylpyrrolidin-2-yl]methoxy]-6,8-dihydro-5H-pyrido[3,4-d]pyrimidin-4-yl]-1-prop-2-enoyl-piperazin-2-yl]acetonitrile] |
| 6.00 to 10.00 | C=CC(=O)N1CCN(c2nc(OC[C@@H]3C[C@@H](OC)CN3CC)nc3c2CCN(c2cccc(Cl)c2C(F)(F)F)C3)C[C@@H]1CC#N [Example 335, 2-[(2S)-4-[7-[3-chloro-2-(trifluoromethyl)phenyl]-2-[[(2S,4R)-1-ethyl-4-methoxy-pyrrolidin-2-yl]methoxy]-6,8-dihydro-5H-pyrido[3,4-d]pyrimidin-4-yl]-1-prop-2-enoyl-piperazin-2-yl]acetonitrile] |
| < 6.00 | C=CC(=O)N1CCN(c2nc(OCCN(CC)CC)nc3c2CCN(c2c(C)ccc4[nH]ncc24)C3)CC1 [Example 163, 1-(4-(2-(2-(diethylamino)ethoxy)-7-(5-methyl-1H-indazol-4-yl)-5,6,7,8-tetrahydropyrido[3,4-d]pyrimidin-4-yl)piperazin-1-yl)prop-2-en-1-one] |
| 6.00 to 10.00 | C=CC(=O)N1CCN(c2nc(OCC3CCN(C4CCCCC4)C3)nc3c2CCN(c2cc(O)cc4ccccc24)C3)CC1 (stereo not shown) [Example 132, 1-[4-[2-[(1-cyclohexylpyrrolidin-3-yl)methoxy]-7-(3-hydroxy-1-naphthyl)-6,8-dihydro-5H-pyrido[3,4-d]pyrimidin-4-yl]piperazin-1-yl]prop-2-en-1-one] |
| 6.00 to 10.00 | C=CC(=O)N1CCN(c2nc(O[C@H](C)CN3CCOCC3)nc3c2CCN(c2cc(O)cc4ccccc24)C3)CC1 [Example 56, (R)-1-(4-(7-(3-hydroxynaphthalen-1-yl)-2-((1-morpholinopropan-2-yl)oxy)-5,6,7,8-tetrahydropyrido[3,4-d]pyrimidin-4-yl)piperazin-1-yl)prop-2-en-1-one] |
| 6.00 to 10.00 | C=CC(=O)N1CCN(c2nc(OC[C@@H]3CCCN3C)nc3c2CCN(c2cccc(Cl)c2OC)C3)C[C@@H]1CC#N [Example 422, 2-((S)-1-acryloyl-4-(7-(3-chloro-2-methoxyphenyl)-2-(((S)-1-methylpyrrolidin-2-yl)methoxy)-5,6,7,8-tetrahydropyrido[3,4-d]pyrimidin-4-yl)piperazin-2-yl)acetonitrile] |
| < 6.00 | C=CC(=O)N1CCN(c2nc(OCCCN3CCOCC3)nc3c2CCN(c2cc(O)ccc2OC(C)C)C3)CC1 [Example 96, 1-(4-(7-(5-hydroxy-2-isopropoxyphenyl)-2-(3-morpholinopropoxy)-5,6,7,8-tetrahydropyrido[3,4-d]pyrimidin-4-yl)piperazin-1-yl)prop-2-en-1-one] |
| < 6.00 | C=CC(=O)N1CCN(c2nc(NC[C@@H]3CCCN3C)nc3c2CCN(c2cccc4ccccc24)C3)C[C@@H]1CC#N [Example 408, 2-((S)-1-acryloyl-4-(2-((((S)-1-methylpyrrolidin-2-yl)methyl)amino)-7-(naphthalen-1-yl)-5,6,7,8-tetrahydropyrido[3,4-d]pyrimidin-4-yl)piperazin-2-yl)acetonitrile] |
